{"source": "patent US20090209473A1", "about": "“Componds and methods for pormoting angiogenesis” (priority 2003, published 2009)", "key": {"[1]": {"test_system": "Human umbilical vein endothelial cells (HUVEC)", "assay": "HUVEC cluster sprouting in collagen gel (Example 1 in vitro model)", "assay_type": "cell-based", "details": "for sprout length versus cells receiving VEGF only: co-administered with VEGF", "experimental": "Human umbilical vein endothelial cells (HUVEC) were used to evaluate various gamma-secretase inhibitors for potential angiogenesis effect. A 72 cm2 flask of confluent cells (1.5-2 E6 cells) was trypsinized with 3.5 ml trypsin/EDTA. After a maximum of 3 minutes, the cells were rinsed with 1.5 ml serum then centrifuged at 200 g for 3 minutes. After centrifugation, the supernatant was discarded and the cells resuspended in medium (endothelial cell growth medium (Promocell) with additional 10% serum). Cell concentration was diluted to 2.0×10^4 cells/ml in medium supplemented with 20% methocel stock solution. The cells were clustered in hanging drops of 20 μl (400 cells) overnight.\nTo imbed the cells in gel, the drops were first rinsed with PBS. The clusters were centrifuged at 200 g for 3 minutes and the supernatant removed. Centrifuge tubes were then briefly drawn over a rough surface to loosen the pellet. The clusters were resuspended in ice cold methocel stock solution supplemented with 20% protein. An equal amount of collagen I-gel at 3 mg/ml (Becton-Dickinson) was carefully mixed with the cells. Immediately thereafter, 1000 μl of the gel/cell cluster mixture was added to each well of a preheated (37° C.) 24-well plate. The plate was incubated for 30 minutes at 37° C., 5% CO2 and 100% humidity. One hundred μl of medium, along with the desired test substance and optionally 2.5 μl of 10 μg/ml VEGF were added to each well to a final concentration in the top medium of 250 ng/ml and 25 ng/ml in the well. Negative control cells received medium only and positive control cells received medium and VEGF only. The wells without gel were given 1 ml PBS.\nTo quantify the results, ten clusters from each […] were photographed. The length of the five longest sprouts on each cluster was measured, and the sum of the sprout length from each cluster calculated. Average values from ten clusters were obtained.\nThe above-mentioned methocel stock solution was prepared by autoclaving 6 grams of pure methyl cellulose powder (Sigma) in a 500 ml flask containing a magnetic stirrer. After autoclaving the methyl cellulose was dissolved in 250 ml of basal medium preheated to 60° C. for 20 minutes. An additional 250 ml of basal medium at room temperature was added to a final volume of 500 ml and the solution stirred overnight. Finally, the stock solution was aliquotted and cleared through centrifugation at 5000g for 2 hours at room temperature. The 90-95% of the material which became the clear, highly viscous supernatant was used."}, "HUVEC spheroids": {"test_system": "HUVEC spheroids", "assay": "HUVEC spheroid sprouting, cumulative sprout length (Example 5 modified in vitro model)", "assay_type": "cell-based, Human", "details": "for sprout length versus control across concentrations: 100, 20, 4, 0.8, 0.16, 0.032 μM", "experimental": "Similar to the approach described in Example 1, two further compounds were evaluated for their ability to initiate or increase angiogenesis. HUVEC spheroids were prepared by pipetting 400 HUVE cells (PromoCell, Heidelberg, Germany, cultured according to supplier's instructions) into each well of non-adhesive 96-well plates and allowed to aggregate overnight. After harvesting, 48 spheroids were seeded in 900 μl of methocel-collagen solution and pipetted into individual wells in a 24-well plate, allowing for collagen gel polymerization. After 30 minutes, freshly-prepared test compounds were added (prepared by dissolving lyophilized compound at a concentration of 10 mM in DMSO, specific concentrations administered described below) by pipetting 100 μl of a 10-fold concentrated working dilution on top of the gel. At the end of the incubation period the dishes were fixed for 24 hours at 37° C. with paraformaldehyde.\nSprouting intensity of endothelial cells was quantitated by an image analysis system determining the cumulative sprout length per spheroid using an Olympus IX50 inverted microscope and Olympus image analysis software. The mean of the cumulative sprout length of 10 randomly selected spheroids was analyzed as an individual data point."}, "new born mice": {"test_system": "new born mice", "assay": "Physiological retinal angiogenesis in new born (non-OIR) mice", "assay_type": "in vivo", "details": "administered postnatal days 3 and 4, retinas analysed day 5", "experimental": "To investigate if the increased retinal vascularization after DAPT treatment was restricted to the OIR, the effect of DAPT on physiological angiogenesis in new born mice was investigated. DAPT was administered to new born mice on postnatal days 3 and 4 and retinas were analyzed at day 5 as described above. […] This can be observed by comparing the degree of vascularization in the retina of control animals, FIGS. 20 and 21, with that of treated animals as shown in FIGS. 22 and 23. Except for the increased vascular density, the vascular architecture was normal. The growth of the vascular network towards the periphery and the arterio-venous specification were intact for DAPT-treated mice as with controls."}, "[2]": {"test_system": "Oxygen-induced retinopathy mice", "assay": "Oxygen-induced retinopathy mouse model, retinal whole mount analysis", "assay_type": "in vivo", "text": "Oxygen-induced retinopathy mice were used to determine the extent and effect of gamma-secretase inhibitors on the angiogenic process. Mice with oxygen induced retinopathy (OIR mice) are a commonly-used model and are described in the literature (see, Smith et al, supra). They are at times referred to as retinopathy of prematurity models or ROP mice. The model takes advantage of the fact that full term mice pups are born with an immature retinal vascularization which matures during the first three weeks of postnatal growth. Briefly, neonatal mice (NMRI/C57b1) from the same litter were placed, with their nursing mother, in a hyperoxic environment (75% oxygen) at age day seven. After exposure to the hyperoxic environment for 5 days, the 12-day old pups were removed to normal air. In the treated mice, DAPT was administered once daily during age days 12-16. Control pups were treated the same way but injected with the vehicle. At post natal day 17 the mice were euthanized and the retinas were prepared for whole mount immunohistochemistry. Except for the mode of injection, the stock solution of DAPT was prepared and administered essentially as described in Lanz et al., (2003, J. Pharmacol. Exp. Ther. 305:864-71). In short, 5 mg DAPT was dissolved in 25 μl 99.5% EtOH and then dissolved in 475 μl Corn oil (Sigma, Catalog No. C8267). If precipitate formed, the solution was heated to 70° C. for 2-3 minutes. The pups were injected subcutaneously once a day according to: V(μl)=weight (g)*10, that is, 100 mg DAPT/kg body weight. Control pups were injected subcutaneously once a day with the same amount of vehicle (i.e. 5% EtOH in corn oil). Eyes were fixed in 4% PFA in PBS at 4° C. overnight and washed in PBS. […] This can be quantified in the superficial capillary plexus by counting the number of capillary enclosed areas in the peripheral part of the retina."}, "[3]": {"details": "100 μM test compound co-administered with 25 ng/ml VEGF-A"}, "[4]": {"details": "100 μM test compound, no VEGF-A"}}, "note": "Several values for one entry are separate records, joined by “and”; a condition that tells them apart may be missing. Equal entries are not always repeated."}
{"compound": "CC1(C)[C@@H]2CC[C@@](C)(C2)[C@@H]1NS(=O)(=O)c1ccc(F)cc1", "note": "[1-(S)-endo-N-(1,3,3)-Trimethylbicyclo[2.2.1]hept-2-yl)-4-fluorophenyl Sulfonamide]", "values": [{"measurement": "average sprout length", "setting": "[1]; 0.16 μM test compound, no VEGF", "value": 280, "unit": "μm"}, {"measurement": "increase in length versus control cells", "setting": "[1]; 0.16 μM, no VEGF", "value": 100, "unit": "%"}, {"measurement": "average sprout length", "setting": "[1]; 20 μM test compound co-administered with VEGF", "value": 480, "unit": "μm"}]}
{"compound": "C[C@H](NC(=O)C(O)c1cc(F)cc(F)c1)C(=O)N[C@H]1N=C(c2ccccc2)c2ccccc2N(C)C1=O", "note": "(stereo partly drawn) [Compound X, S-3-[N′-(3,5-difluorophenyl-alpha-hydroxyacetyl)-L-alanilyl]amino-2,3-dihydro-1-methyl-5-phenyl-1H-1,4-benzodiazepin-2-one]", "values": [{"measurement": "sprouting versus VEGF-A only", "setting": "HUVEC spheroids; 4 μM test compound co-administered with VEGF-A", "value": "increase the sprouting significantly"}, {"measurement": "cumulative length of all sprouts (CSL)", "setting": "HUVEC spheroids; [3]", "value": 4289, "unit": "μm"}, {"measurement": "cumulative length of all sprouts (CSL)", "setting": "HUVEC spheroids; [4]", "value": 1630, "unit": "μm"}, {"measurement": "sprout length versus control across concentrations", "setting": "HUVEC spheroids; no VEGF-A", "value": "Only the two lowest concentrations tested failed to produce longer sprouts that control"}]}
{"compound": "C[C@H](NC(=O)Cc1cc(F)cc(F)c1)C(=O)N[C@H](C(=O)OC(C)(C)C)c1ccccc1", "note": "[DAPT]", "values": [{"measurement": "peripheral retinal vascular density", "setting": "new born mice", "value": "increased peripheral vascular density"}, {"measurement": "vascular architecture of retina", "setting": "new born mice", "value": "normal"}, {"measurement": "avascular zones in the central retina", "setting": "[2]; 100 mg/kg s.c. once daily days 12-16, analysed day 17", "value": "almost completely lack the vascular-free zones"}, {"measurement": "number of capillary enclosed areas in the peripheral retina", "setting": "[2]; 100 mg/kg s.c. once daily days 12-16, day 17, versus vehicle control", "value": "near doubling"}, {"measurement": "vascular (capillary) tufts in retina", "setting": "[2]; 100 mg/kg s.c. once daily days 12-16, versus control", "value": "significant reduction in capillary tufts"}, {"measurement": "average sprout length", "setting": "[1]; 0.08 μM test compound, no VEGF, +/- SEM", "value": "330+/−28 μm"}, {"measurement": "average sprout length", "setting": "[1]; 0.4 μm DAPT co-administered with VEGF", "value": "550+/−32 μm"}, {"measurement": "sprout length at increasing levels", "setting": "[1]; DAPT 0.4, 2, 10 and 50, no VEGF, versus 0.08 μM", "value": "further increases in sprout length"}, {"measurement": "sprout length versus cells receiving VEGF only", "setting": "[1]", "value": "increases in sprout length over those with VEGF alone"}]}
{"compound": "CC(C)[C@H](O)C(=O)N[C@@H](C)C(=O)N[C@@H]1C(=O)N(C)CCc2ccccc21", "note": "[LY-450, 139, (N)—[(S)-2-hydroxy-3-methyl-butyryl]-1-(L-alaninyl)-(S)-1-amino-3-methyl-4,5,6,7-tetrahydro-2H-3-benzazepin-2-one]", "values": [{"measurement": "cumulative length of all sprouts (CSL)", "setting": "HUVEC spheroids; [3]", "value": 3521, "unit": "μm"}, {"measurement": "cumulative length of all sprouts (CSL)", "setting": "HUVEC spheroids; [4]", "value": 1730, "unit": "μm"}, {"measurement": "sprout length versus control across concentrations", "setting": "HUVEC spheroids; no VEGF-A", "value": "lower concentrations were not found to be effective"}, {"measurement": "sprout length versus VEGF-A only across concentrations", "setting": "HUVEC spheroids; 100 to 0.032 μM co-administered with 25 ng/ml VEGF-A", "value": "Only the lowest concentration tested failed to produce longer sprouts that VEGF-A"}]}
{"compound": "COC(=O)[C@@H](NC(=O)[C@H](CC(C)C)NC(=O)N(Cc1ccccc1)C[C@@H](O)[C@H](Cc1ccccc1)NC(=O)OC(C)(C)C)C(C)C", "note": "[WPE-III-31C]", "values": [{"measurement": "average sprout length", "setting": "[1]; 0.16 μM test compound co-administered with VEGF", "value": 410, "unit": "μm"}, {"measurement": "average sprout length", "setting": "[1]; 0.16 μM test compound, no VEGF", "value": 230, "unit": "μm"}, {"measurement": "sprout length at increasing concentrations", "setting": "[1]; WPE-III-31C 0.16, 0.8 and 4 μM, no VEGF", "value": "only increased with increasing concentrations"}, {"measurement": "sprout length versus cells receiving VEGF only", "setting": "[1]", "value": "significantly longer sprout lengths than the control cells"}]}
{"compound": "VEGF", "values": [{"measurement": "average sprout length", "setting": "[1]; VEGF only (positive control), 25 ng/ml in the well", "value": "460 μm and 370 μm and 320 μm"}, {"measurement": "cumulative length of all sprouts (CSL)", "setting": "HUVEC spheroids; VEGF-A only, 25 ng/ml", "value": "1794 μm and 1860+/−100 μm"}]}
